According to patent US20030157026A1, “Photodynamic diagnosis and therapy for insulin-dependent diabetes mellitus” (priority 2001, published 2003):

Assays:
Format in all cases: in vivo
[1] = tested on: macrophages having infiltrated the inflammatory sites of Langerhans islets; assay: Uptake of conventional PDT photosensitizers into macrophages in the pancreas of a mammal with IDDM; conditions: no test described
[2] = tested on: BB rats with onset of IDDM; assay: Test Example 3: photodynamic therapy of IDDM in BB rats (664-nm laser light), survival rate
Experimental: From 60 days after birth, BB rats (16 rats per group) were examined every day for the urine sugar level and blood sugar level, to confirm the time of the onset of IDDM. […] Photodynamic therapy of IDDM was thus conducted once, and thereafter, the survival rate (%) of the BB rats were evaluated during the breeding for subsequent […].
On the other hand, the survival rate (%) of the control group of rats (untreated) was about 65% on Day 6 after the start of the test, and all rats had died on Day 22 after the start of the test.
The survival rate (%) of rats under test was evaluated by the following equation: [formula]

[3] = tested on: macrophages having infiltrated the islets of Langerhans; assay: Test Example 1: fluorescence localisation in frozen pancreatic sections after i.v. administration to BB rats with onset of IDDM; conditions: 5 mg/kg via tail vein, pancreas excised 1 hour after administration, 664 nm laser (same result with 405 nm UV / 672 nm fluorescence)
From the text: From 60 days after birth, the BB rats were examined every day for the urine sugar level and blood sugar level by using GLUTEST SENSOR (Sanwa Kagaku Co., Ltd., Japan). […] The excised pancreases were frozen in dry ice/acetone, to prepare frozen pancreatic sections of 5 μm in thickness. The frozen pancreatic sections were irradiated with a semiconductor laser light of 664 nm (Matsushita Industrial Equipment Co., Ltd., Japan). An image of fluorescence as emitted by mono-L-aspartyl chlorin e6 in the frozen pancreatic section was observed under a fluorescence microscope equipped with a notched filter for cutting 664 nm wavelength (made by Carl Zeiss). […]
Further, the places of the pancreas section which indicated the previously observed fluorescence of mono-L-aspartyl chlorin e6 were confirmed to be consistent with the sites where the macrophages were present in the pancreas sections. […] When a method comprising irradiation of a UV ray of a wavelength of 405 nm and observing a fluorescence at 672 nm with a cut filter for cutting light rays of wavelengths of not more than 600 nm was used for the observation of the fluorescence of mono-L-aspartyl chlorin e6, there could again be obtained the same result as that obtained in the above-described method comprising irradiation of the 664-nm semiconductor laser.

[4] = BB rats treated by the photodynamic therapy

Compound: CCOC(=O)C1=Cc2c3nc(cc4nc(cc5[n-]c(cc6[n-]c2c(C)c6CC)c(C)c5CC)C(C)=C4CC)[C@@H](C)[C@]13CC.[Cl-].[Cl-].[Sn] (racemic) [rostaporfin]
- uptake into macrophages when each singly administered [1]: selectively be uptaken by and into the macrophages

Compound: C=CC1=C(C)C2=CC3=C(/C=C/NO)C(C)(O)C(=CC4=NC(=CC5=NC(=CC1=N2)C(C)=C5CCC(=O)N[C@@H](CC(=O)[O-])C(=O)[O-])C(CCC(=O)N[C@@H](CC(=O)[O-])C(=O)[O-])=C4C)N3.[Na+].[Na+].[Na+].[Na+] (stereo partly drawn) [ATX-S10]
- uptake into macrophages when each singly administered [1]: selectively be uptaken by and into the macrophages

Compound: CC(=O)[O-].CC(=O)[O-].CCc1c(CC)c2cc3nc(cnc4cc(OCCOCCOCCOC)c(OCCOCCOCCOC)cc4ncc4nc(cc1[n-]2)C(CCCO)=C4C)C(C)=C3CCCO.O.[Lu+3] [motexafin lutetium]
- uptake into macrophages when each singly administered [1]: selectively be uptaken by and into the macrophages

Compound: C=Cc1c(C)c2cc3nc(c(CC(=O)O)c4[nH]c(cc5nc(cc1[nH]2)C(C)=C5CC)c(C)c4C(=O)O)[C@@H](CCC(=O)O)[C@@H]3C [chlorin e6]
- uptake into macrophages when each singly administered [1]: selectively be uptaken by and into the macrophages

Compound: C=Cc1c(C)c2cc3nc(c(CC(=O)N[C@@H](CC(=O)[O-])C(=O)[O-])c4[nH]c(cc5nc(cc1[nH]2)C(C)=C5CC)c(C)c4C(=O)[O-])[C@@H](CCC(=O)[O-])[C@@H]3C.[Na+].[Na+].[Na+].[Na+] [mono-L-aspartyl chlorin e6]
- blood sugar level compared with control group [2, 4]: blood sugar level had changed at slightly lower stages
- progress of Langerhans islet inflammation (pancreatic insulitis) [2, 4]: pancreatic insulitis was suppressed by the PDT
- insulin production ([2]; BB rats treated by the photodynamic therapy vs control): tendency to delay the disappearance of insulin production
- uptake and accumulation of the administered photosensitizer (fluorescence image vs macrophage antibody staining) [3]: uptaken into and accumulated specifically in the macrophages having infiltrated the islets of Langerhans

Compound: tetrasodium salt of mono-L-aspartyl chlorin e6
- long-term survivors ([2]; BB rats, 5 mg/kg i.v. plus 664-nm laser, all control rats had died on Day 22): several rats surviving still after Day 35
- survival curve compared with untreated control group ([2]; BB rats, 5 mg/kg i.v., 24 h later 664-nm laser 50 J/cm^2, once): evident prolongation of their survival curve
- survival rate (%) on Day 6 after the start of the therapy ([2]; BB rats, 5 mg/kg i.v., 24 h later 664-nm laser 50 J/cm^2 transcutaneously, once, untreated control about 65%): 100%

Compound: porfimer sodium
- uptake into macrophages when each singly administered [1]: selectively be uptaken by and into the macrophages
